The values that follow are results of earlier work, collected in article PMC7156367, “Cell surface processing of the P1 adhesin of Mycoplasma pneumoniae identifies novel domains that bind host molecules” (Scientific Reports, 2020).

On the set-up of this series: method as in PMID 28894125. Conditions: ref [12]; cited from earlier work.

As to elongation factor Tu [Ef-Tu], the affinity to heparin result was “strong affinity to heparin”.
